The source of these data is PubChem BioAssay AID328 (DTP/NCI, 2004).

The test system of this assay is BDF1 mice, P388 leukemia ip, median survival T/C. The experiment in a line: NCI In Vivo Anticancer Drug Screen. Data for tumor model P388 Leukemia (intraperitoneal) in B6D2F1 (BDF1) mice. Conditions: endpoint: median survival time, higher = longer survival. Here is the method: The antitumor activity of compounds was measured in mice bearing transplantable tumors. Survival or tumor size were measured and the results are expressed as the measurement made in the treated group (T) divided by the measurement made in the vehicle treated control group (C). The tumor model used in this assay is P388 Leukemia (intraperitoneal) in B6D2F1 (BDF1) mice

Where [1] appears, read: dose: 200.0 mg/kg/injection, schedule: Q04DX003 (ip), vehicle: Klucel (hydroxypropylcellulose) (HPC).
The mark [2] stands for this setting: dose: 100.0 mg/kg/injection, schedule: Q01DX009 (ip), vehicle: Klucel (hydroxypropylcellulose) (HPC).
The mark [3] stands for this setting: dose: 200.0 mg/kg/injection, schedule: Q01DX009 (ip), vehicle: Klucel (hydroxypropylcellulose) (HPC).
[4] abbreviates: dose: 25.0 mg/kg/injection, schedule: Q01DX009 (ip), vehicle: water.
[5] abbreviates: dose: 100.0 mg/kg/injection, schedule: Q01DX009 (ip), vehicle: water.
Setting [6] is: dose: 100.0 mg/kg/injection, schedule: Q04DX003 (ip), vehicle: water.
Where [7] appears, read: dose: 200.0 mg/kg/injection, schedule: Q04DX003 (ip), vehicle: water.
Setting [8] is: dose: 25.0 mg/kg/injection, schedule: Q04DX003 (ip), vehicle: saline with Tween-80.
The mark [9] stands for this setting: dose: 50.0 mg/kg/injection, schedule: Q04DX003 (ip), vehicle: saline with Tween-80.
Setting [10] is: dose: 50.0 mg/kg/injection, schedule: Q01DX009 (ip), vehicle: saline with Tween-80.
Setting [11] is: dose: 200.0 mg/kg/injection, schedule: Q01DX009 (ip), vehicle: saline with Tween-80.
Where [12] appears, read: dose: 25.0 mg/kg/injection, schedule: Q01DX009 (ip), vehicle: saline with Tween-80.
[13] abbreviates: dose: 100.0 mg/kg/injection, schedule: Q01DX009 (ip), vehicle: saline with Tween-80.
[14] abbreviates: dose: 100.0 mg/kg/injection, schedule: Q04DX003 (ip), vehicle: saline with Tween-80.

“And” between values parts separate entries of the source, which are not always exact repeats. Equal values may be shown once. Toxic doses and inconclusive results are not listed.

`CC(O)C(O)C(O)C(O)/C=N/O` (stereo not given): the T/C is, setting by setting: under setting [1], 92 % of control; (dose: 400.0 mg/kg/injection, schedule: Q04DX003 (ip), vehicle: Klucel (hydroxypropylcellulose) (HPC)) 88 % of control.
As to `O=Cc1cn[nH]c1-c1ccccc1`, the T/C reads like this: under setting [2], 92 % of control; (dose: 100.0 mg/kg/injection, schedule: Q04DX003 (ip), vehicle: Klucel (hydroxypropylcellulose) (HPC)) 87 % of control; under setting [3], 88 % of control; under setting [1], 87 % of control.
As for `CN=C(NCCCOC)c1ccc(NC(=O)Nc2ccc(NC(=O)Nc3ccc(C(=NC)NCCCOC)cc3)cc2)cc1`, the T/C (dose: 6.25 mg/kg/injection, schedule: Q01DX005 (ip), vehicle: Klucel (hydroxypropylcellulose) (HPC)) is 104 % of control; the T/C (dose: 12.5 mg/kg/injection, schedule: Q01DX005 (ip), vehicle: Klucel (hydroxypropylcellulose) (HPC)) was 108 % of control; the T/C (dose: 25.0 mg/kg/injection, schedule: Q01DX005 (ip), vehicle: Klucel (hydroxypropylcellulose) (HPC)) was 115 % of control; the T/C (dose: 50.0 mg/kg/injection, schedule: Q01DX005 (ip), vehicle: Klucel (hydroxypropylcellulose) (HPC)) was 121 % of control; the T/C (dose: 100.0 mg/kg/injection, schedule: Q01DX005 (ip), vehicle: Klucel (hydroxypropylcellulose) (HPC)) is 107 % of control.
For the compound `O=C1NC(=O)C(c2cccs2)(c2cccs2)N1`, the T/C is 115 % of control under setting [4], 111 % of control under setting [5], 99 % of control under setting [6] and 98 % of control under setting [7].
For `Cc1[nH]c(=S)[nH]c(=O)c1CN(CCO)CCO`, the T/C reads like this: (dose: 50.0 mg/kg/injection, schedule: Q01DX001 (ip), vehicle: Klucel (hydroxypropylcellulose) (HPC)) 96 % of control; (dose: 100.0 mg/kg/injection, schedule: Q01DX001 (ip), vehicle: Klucel (hydroxypropylcellulose) (HPC)) 96 % of control; (dose: 200.0 mg/kg/injection, schedule: Q01DX001 (ip), vehicle: Klucel (hydroxypropylcellulose) (HPC)) 96 % of control.
For the compound `NNC(=O)c1ccc(Cl)cc1Nc1ccc(F)cc1`, the T/C is 104 % of control (dose: 50.0 mg/kg/injection, schedule: Q04DX003 (ip), vehicle: saline) and 100 % of control (dose: 100.0 mg/kg/injection, schedule: Q04DX003 (ip), vehicle: saline).
In the case of `O=C(O)c1ccc(N=NSc2ncnc3nc[nH]c23)cc1O`, the T/C is 115 % of control (dose: 1.3 mg/kg/injection, schedule: Q01DX009 (ip), vehicle: saline with Tween-80); 153 % of control (dose: 3.0 mg/kg/injection, schedule: Q01DX009 (ip), vehicle: saline with Tween-80); 150 % of control (dose: 4.0 mg/kg/injection, schedule: Q01DX009 (ip), vehicle: saline with Tween-80); 119 % of control and 123 % of control (dose: 6.0 mg/kg/injection, schedule: Q01DX009 (ip), vehicle: saline with Tween-80); 123 % of control (dose: 9.0 mg/kg/injection, schedule: Q01DX009 (ip), vehicle: saline with Tween-80); 96 % of control (dose: 12.0 mg/kg/injection, schedule: Q01DX009 (ip), vehicle: saline with Tween-80). Moreover, the T/C reads like this: (dose: 14.5 mg/kg/injection, schedule: Q04DX003 (ip), vehicle: saline with Tween-80) 122 % of control; (dose: 22.0 mg/kg/injection, schedule: Q04DX003 (ip), vehicle: saline with Tween-80) 122 % of control; under setting [8], 161 % of control; (dose: 33.0 mg/kg/injection, schedule: Q04DX003 (ip), vehicle: saline with Tween-80) 118 % of control and 119 % of control; under setting [9], 177 % of control; (dose: 75.0 mg/kg/injection, schedule: Q04DX003 (ip), vehicle: saline with Tween-80) 119 % of control.
For the compound `Cc1noc(C)c1CON`, the T/C reads like this: (dose: 12.5 mg/kg/injection, schedule: Q01DX009 (ip), vehicle: saline) 91 % of control; (dose: 25.0 mg/kg/injection, schedule: Q01DX009 (ip), vehicle: saline) 91 % of control; (dose: 50.0 mg/kg/injection, schedule: Q01DX009 (ip), vehicle: saline) 95 % of control.
`COC(=O)C1(C)CC2C(C)(CCC3(C)C4=CC=C5C(=CC(=O)C(O)=C5C)C4(C)CCC23C)CC1O` (stereo not given): the T/C runs as follows: (dose: 25.0 mg/kg/injection, schedule: Q01DX001 (ip), vehicle: saline with Tween-80) 109 % of control; (dose: 50.0 mg/kg/injection, schedule: Q01DX001 (ip), vehicle: saline with Tween-80) 91 % of control; (dose: 100.0 mg/kg/injection, schedule: Q01DX001 (ip), vehicle: saline with Tween-80) 104 % of control.
Turning to `CC(=O)C/C(C)=N\NC(=S)SCc1ccccc1`, the T/C reads like this: (dose: 75.0 mg/kg/injection, schedule: Q01DX009 (ip), vehicle: saline with Tween-80) 90 % of control; (dose: 150.0 mg/kg/injection, schedule: Q01DX009 (ip), vehicle: saline with Tween-80) 97 % of control; (dose: 300.0 mg/kg/injection, schedule: Q01DX009 (ip), vehicle: saline with Tween-80) 92 % of control.
As to `CCc1nc2ccccc2c(=O)n1C`, the T/C was 101 % of control under setting [10] and 101 % of control under setting [11].
On to `CN(C)CSCN(C)C`, for which the T/C is 100 % of control under setting [12], 111 % of control under setting [10] and 102 % of control under setting [13].
With `COc1ccc(/C=C/C(=O)c2ccc(OC)c(OCc3ccccc3)c2)cc1OC`, the T/C under setting [4] was 97 % of control; the T/C (dose: 50.0 mg/kg/injection, schedule: Q01DX009 (ip), vehicle: water) was 100 % of control and 121 % of control; the T/C (dose: 50.0 mg/kg/injection, schedule: Q04DX003 (ip), vehicle: water) is 100 % of control; the T/C under setting [5] is 100 % of control and 111 % of control; the T/C under setting [6] was 94 % of control; the T/C (dose: 200.0 mg/kg/injection, schedule: Q01DX009 (ip), vehicle: water) was 95 % of control and 101 % of control. Besides, the T/C is, setting by setting: under setting [7], 86 % of control; (dose: 400.0 mg/kg/injection, schedule: Q01DX009 (ip), vehicle: water) 97 % of control; (dose: 400.0 mg/kg/injection, schedule: Q04DX003 (ip), vehicle: water) 88 % of control; (dose: 600.0 mg/kg/injection, schedule: Q01DX009 (ip), vehicle: water) 91 % of control.
Turning to `C=CC12COC(=O)C(=C)C1C(O)C1C(=C)C(=O)OC1C2` (stereo not given), the T/C was 113 % of control (dose: 3.75 mg/kg/injection, schedule: Q01DX009 (ip), vehicle: saline + alcohol) and 90 % of control (dose: 15.0 mg/kg/injection, schedule: Q01DX009 (ip), vehicle: saline + alcohol).
On to `Cc1ccc2c(c1)=N/C(=N/c1[nH]c(O)c3ccccc13)N=2`, for which the T/C is, setting by setting: (dose: 6.25 mg/kg/injection, schedule: Q01DX009 (ip), vehicle: saline with Tween-80) 108 % of control; (dose: 12.5 mg/kg/injection, schedule: Q01DX009 (ip), vehicle: saline with Tween-80) 99 % of control; under setting [12], 108 % of control.
Consider `NC(=O)NC1C(c2ccccc2)=NOC1C(N)=O` (stereo not given), for which the T/C is, setting by setting: under setting [2], 105 % of control; under setting [3], 100 % of control.
With `O=C1c2ccccc2C(=O)N1CCCn1c2ccccc2c2cnccc21`, the T/C is, setting by setting: under setting [13], 105 % of control; under setting [14], 95 % of control; under setting [11], 90 % of control; (dose: 200.0 mg/kg/injection, schedule: Q04DX003 (ip), vehicle: saline with Tween-80) 100 % of control; (dose: 400.0 mg/kg/injection, schedule: Q01DX009 (ip), vehicle: saline with Tween-80) 110 % of control; (dose: 400.0 mg/kg/injection, schedule: Q04DX003 (ip), vehicle: saline with Tween-80) 90 % of control.
As to `CCOC(=O)NC`, the T/C was 104 % of control (dose: 100.0 mg/kg/injection, schedule: Q01DX009 (ip), vehicle: saline); 100 % of control (dose: 200.0 mg/kg/injection, schedule: Q01DX009 (ip), vehicle: saline); 112 % of control (dose: 400.0 mg/kg/injection, schedule: Q01DX009 (ip), vehicle: saline).
For the compound `Cc1cc2c(cc1C)C(=O)C(N1CCN(C)CC1)CCC2` (stereo not given), the T/C runs as follows: under setting [8], 100 % of control; under setting [9], 104 % of control; under setting [14], 86 % of control.
